This passage reports IC50 results from patent US20260285863A1, “COMPOUNDS CAPABLE OF MODULATING GPR65” (Pathios Therapeutics Limited, priority 2023, published 2026).

Broadly, the IC50 is the concentration that gives 50% inhibition.

Molecules are shown by their SMILES.

The target of the assay is T1, human recombinant GPR65 (Homo sapiens, UniProt Q8IYL9).
T1 construct: host or cells: 1321N1 human astrocytoma cells (1321N1-hrGPR65)
T1 sequence (Q8IYL9 whole entry): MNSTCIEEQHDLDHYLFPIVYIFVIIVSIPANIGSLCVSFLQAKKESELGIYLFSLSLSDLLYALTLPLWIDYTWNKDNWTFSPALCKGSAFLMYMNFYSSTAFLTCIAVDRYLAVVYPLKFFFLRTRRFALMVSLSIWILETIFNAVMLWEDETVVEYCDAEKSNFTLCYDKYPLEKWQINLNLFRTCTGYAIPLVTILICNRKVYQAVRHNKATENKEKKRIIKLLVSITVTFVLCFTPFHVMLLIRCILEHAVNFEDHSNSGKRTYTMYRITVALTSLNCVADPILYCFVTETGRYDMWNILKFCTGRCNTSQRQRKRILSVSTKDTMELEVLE
In words: Human GPR65 cAMP HTRF antagonist assay. Format: cell-based. The conditions noted are these: 1321N1-hrGPR65 cells, assay pH 7.2, cAMP HTRF; read-out: hGPR65 IC50. The text has this: The “Human GPR65 cyclic adenosine monophosphate (cAMP) Homogeneous Time Resolved Fluorescence (HTRF) antagonist assay”, or simply “cAMP assay”, as described in the accompanying examples, can be used to measure the potency of GPR65 modulators, which is expressed as the concentration of compound required to reduce the increase in cAMP concentration upon GPR65 activation by 50% (i.e. an IC50).
Human GPR65 Cyclic Adenosine Monophosphate (cAMP) Homogeneous Time Resolved Fluorescence (HTRF) Antagonist Assay Procedure
IC50data was obtained by the following procedure:
1321N1 human astrocytoma cells stably expressing human recombinant GPR65 (1321N1-hrGPR65 cells, EuroscreenFast) were cultured according to the vendor's instructions.
Compounds were tested for their ability to antagonise GPR65, through measuring the concentration of cytoplasmic cAMP following treatment of the cells at a pH of 7.2 to activate GPR65 signalling and addition of the compound to be tested. The extent to which the expected rise in cAMP concentration upon GPR65 activation was suppressed by the added compound is indicative of its potency. The assay was carried out according to EuroscreenFast assay Methodology as follows.
On the day of the assay, test compounds were added to 384-well, low volume, white microtiter plates by acoustic dispensing. KRH buffer (5 mM KCl, 1.25 mM MgSO4, 124 mM NaCl, 25 mM HEPES, 13.3 mM Glucose, 1.25 mM KH2PO4 and 1.45 mM CaCl2) was adjusted to pH 6.5, pH 7.6 and pH 8.4 by adding NaOH. 1321N1-hGPR65 cells were rapidly thawed and diluted in KRH, pH 7.6 prior to centrifugation at 300×g for 5 min and resuspension in assay buffer (KRH, pH 7.6, supplemented with 1 mM 3-isobutyl-1-methylxanthine (IBMX) and 200 μM ethylenediaminetetraacetic acid (EDTA)). Cells were added to assay plates at a density of 2,000 cells per well in a volume of […]. Assay plates were briefly centrifuged at 100×g and then incubated at room temperature for 30 min. Cells were stimulated by the addition of 5 μL KRH, pH 6.5, to achieve an assay pH of 7.2, while control wells received […] KRH, pH 8.4 to achieve an assay pH of 7.9. Assay plates were briefly centrifuged at 100×g and then incubated at room temperature for 30 min.
Accumulation of cAMP was detected by cAMP HTRF kit (Cisbio). d2-labeled cAMP and cryptate-labeled anti-cAMP antibody in Lysis and Detection Buffer (Cisbio) were added to assay plates, and the plates were incubated at room temperature for 1 h. HTRF measurements were performed using a Pherastar FSX instrument. Acceptor and donor emission signals were measured at 665 nm and 620 nm, respectively, and HTRF ratios were calculated as signal665 nm/signal620 nm×104. Data were normalised to high and low control values and fitted with 4-parameter logistic regression to determine hGPR65 IC50 values for the test compounds, which are shown in Table 1.
Background: Time-resolved FRET reads energy transfer from a long-lived donor to a nearby acceptor.
`O=C(Nc1cc(Cl)c(-c2ccc(OC(C(F)F)C(F)F)nc2)cc1F)N1[C@H]2CC[C@@H]1c1c[nH]c(=O)cc1C2` [Compound 13, (6S,9R)-N-(5-chloro-2-fluoro-4-(6-((1,1,3,3-tetrafluoropropan-2-yl)oxy)pyridin-3-yl)phenyl)-3-oxo-3,5,6,7,8,9-hexahydro-2H-6,9-epiminocyclohepta[c]pyridine-10-carboxamide]: the IC50 is below 500 nM.
In the case of `O=C(Nc1cc(Cl)c(-c2ccc(OCC3CC3(F)F)nc2)cc1F)N1[C@H]2CC[C@@H]1c1ccnc(F)c1C2` (stereo partly drawn) [Compound 14, (5R,8S)-N-(5-chloro-4-(6-((2,2-difluorocyclopropyl)methoxy)pyridin-3-yl)-2-fluorophenyl)-1-fluoro-6,7,8,9-tetrahydro-5H-5,8-epiminocyclohepta[c]pyridine-10-carboxamide], the half-maximal inhibitory concentration (IC50) is below 500 nM.
In the case of `COCCOCCO[C@H]1C[C@@H](Oc2ccc(-c3cc(F)c(NC(=O)N4[C@H]5CC[C@@H]4c4c[nH]c(=O)cc4C5)cc3Cl)cn2)C1` [Compound 15, (6S,9R)-N-(5-chloro-2-fluoro-4-(6-((1s,3S)-3-(2-(2-methoxyethoxy)ethoxy)cyclobutoxy)pyridin-3-yl)phenyl)-3-oxo-3,5,6,7,8,9-hexahydro-2H-6,9-epiminocyclohepta[c]pyridine-10-carboxamide] it was below 500 nM.
On to `O=C(Nc1cc(Cl)c(-c2ccc(OCC3CCOC3)nc2)cc1F)N1[C@H]2CC[C@@H]1c1c[nH]c(=O)cc1C2` (stereo partly drawn) [Compound 16, (6S,9R)-N-(5-chloro-2-fluoro-4-(6-((tetrahydrofuran-3-yl)methoxy)pyridin-3-yl)phenyl)-3-oxo-3,5,6,7,8,9-hexahydro-2H-6,9-epiminocyclohepta[c]pyridine-10-carboxamide], for which the 50% inhibitory concentration (IC50) was below 500 nM.
In the case of `Cc1cc(NC(=O)N2[C@H]3CC[C@@H]2c2c[nH]c(=O)cc2C3)c(F)cc1-c1ccc2nsnc2c1` [Compound 17, (6S,9R)-N-(4-(benzo[c][1,2,5]thiadiazol-5-yl)-2-fluoro-5-methylphenyl)-3-oxo-3,5,6,7,8,9-hexahydro-2H-6,9-epiminocyclohepta[c]pyridine-10-carboxamide] it was below 500 nM; in that of `Cc1cc(NC(=O)N2[C@H]3CC[C@@H]2c2c[nH]c(=O)cc2C3)c(F)cc1-c1ccc(OCC(F)(F)F)nc1` [Compound 18, (6S,9R)-N-(2-fluoro-5-methyl-4-(6-(2,2,2-trifluoroethoxy)pyridin-3-yl)phenyl)-3-oxo-3,5,6,7,8,9-hexahydro-2H-6,9-epiminocyclohepta[c]pyridine-10-carboxamide], below 500 nM; in that of `Cc1nc2cc(-c3cc(F)c(NC(=O)N4[C@H]5CC[C@@H]4c4c[nH]c(=O)cc4C5)cc3Cl)ccc2n1C` [Compound 19, (6S,9R)-N-(5-chloro-4-(1,2-dimethyl-1H-benzo[d]imidazol-5-yl)-2-fluorophenyl)-3-oxo-3,5,6,7,8,9-hexahydro-2H-6,9-epiminocyclohepta[c]pyridine-10-carboxamide], 500 to 5000 nM.
In the case of `O=C(Nc1cc(Cl)c(-c2ccc(OCC3CCC3)nc2)cc1F)N1[C@H]2CC[C@@H]1c1n[nH]c(=O)cc1C2` [Compound 20, (6S,9R)-N-(5-chloro-4-(6-(cyclobutylmethoxy)pyridin-3-yl)-2-fluorophenyl)-3-oxo-3,5,6,7,8,9-hexahydro-2H-6,9-epiminocyclohepta[c]pyridazine-10-carboxamide] it was below 500 nM; in that of `O=C(Nc1ccc(-c2ccc(OCC(F)(F)F)nc2)cc1F)N1[C@H]2CC[C@@H]1c1n[nH]c(=O)cc1C2` [Compound 21, (6S,9R)-N-(2-fluoro-4-(6-(2,2,2-trifluoroethoxy)pyridin-3-yl)phenyl)-3-oxo-3,5,6,7,8,9-hexahydro-2H-6,9-epiminocyclohepta[c]pyridazine-10-carboxamide], below 500 nM.
On to `COCCOCCO[C@H]1C[C@H](Oc2ccc(-c3cc(F)c(NC(=O)N4[C@H]5CC[C@@H]4c4c[nH]c(=O)cc4C5)cc3Cl)cn2)C1` [Compound 22, (6S,9R)-N-(5-chloro-2-fluoro-4-(6-((1r,3R)-3-(2-(2-methoxyethoxy)ethoxy)cyclobutoxy)pyridin-3-yl)phenyl)-3-oxo-3,5,6,7,8,9-hexahydro-2H-6,9-epiminocyclohepta[c]pyridine-10-carboxamide], for which the IC50 is below 500 nM.
Consider `COCCO[C@H]1C[C@@H](Oc2ccc(-c3cc(F)c(NC(=O)N4[C@H]5CC[C@@H]4c4c[nH]c(=O)cc4C5)cc3Cl)cn2)C1` [Compound 23, (6S,9R)-N-(5-chloro-2-fluoro-4-(6-((1s,3S)-3-(2-methoxyethoxy)cyclobutoxy)pyridin-3-yl)phenyl)-3-oxo-3,5,6,7,8,9-hexahydro-2H-6,9-epiminocyclohepta[c]pyridine-10-carboxamide], for which the IC50 was below 500 nM.
On to `Cc1cc(-c2cc(F)c(NC(=O)N3[C@H]4CC[C@@H]3c3c[nH]c(=O)cc3C4)cc2Cl)cc2nsnc12` [Compound 24, (6S,9R)-N-(5-chloro-2-fluoro-4-(7-methylbenzo[c][1,2,5]thiadiazol-5-yl)phenyl)-3-oxo-3,5,6,7,8,9-hexahydro-2H-6,9-epiminocyclohepta[c]pyridine-10-carboxamide], for which the IC50 was below 500 nM.
In the case of `CC(C)(C)OC(=O)N1CCC(Oc2ccc(-c3cc(F)c(NC(=O)N4[C@H]5CC[C@@H]4c4c[nH]c(=O)cc4C5)cc3Cl)cn2)C1` (stereo partly drawn) [Compound 25, tert-Butyl 3-((5-(2-chloro-5-fluoro-4-((6S,9R)-3-oxo-3,5,6,7,8,9-hexahydro-2H-6,9-epiminocyclohepta[c]pyridine-10-carboxamido)phenyl)pyridin-2-yl)oxy)pyrrolidine-1-carboxylate] it was below 500 nM; in that of `Cn1ccc2cc(-c3cc(F)c(NC(=O)N4[C@H]5CC[C@@H]4c4c[nH]c(=O)cc4C5)cc3Cl)ccc21` [Compound 26, (6S,9R)-N-(5-chloro-2-fluoro-4-(1-methyl-1H-indol-5-yl)phenyl)-3-oxo-3,5,6,7,8,9-hexahydro-2H-6,9-epiminocyclohepta[c]pyridine-10-carboxamide], below 500 nM.
In the case of `O=C(Nc1cc(Cl)c(-c2ccc(OC3CCN(CC(F)(F)F)C3)nc2)cc1F)N1[C@H]2CC[C@@H]1c1c[nH]c(=O)cc1C2` (stereo partly drawn) [Compound 27, (6S,9R)-N-(5-chloro-2-fluoro-4-(6-((1-(2,2,2-trifluoroethyl)pyrrolidin-3-yl)oxy)pyridin-3-yl)phenyl)-3-oxo-3,5,6,7,8,9-hexahydro-2H-6,9-epiminocyclohepta[c]pyridine-10-carboxamide] it was below 500 nM; in that of `O=C(Nc1cc(Cl)c(-c2ccc(OCC3CCC3)nc2)cc1F)N1[C@H]2CC[C@@H]1c1c[nH]c(=O)cc1C2` [Compound 28, (6S,9R)-N-(5-chloro-4-(6-(cyclobutylmethoxy)pyridin-3-yl)-2-fluorophenyl)-3-oxo-3,5,6,7,8,9-hexahydro-2H-6,9-epiminocyclohepta[c]pyridine-10-carboxamide], below 500 nM; in that of `CC(C)(C)OC(=O)N1CC(COc2ccc(-c3cc(F)c(NC(=O)N4[C@H]5CC[C@@H]4c4c[nH]c(=O)cc4C5)cc3Cl)cn2)C1` [Compound 29, tert-Butyl 3-(((5-(2-chloro-5-fluoro-4-((6S,9R)-3-oxo-3,5,6,7,8,9-hexahydro-2H-6,9-epiminocyclohepta[c]pyridine-10-carboxamido)phenyl)pyridin-2-yl)oxy)methyl)azetidine-1-carboxylate], below 500 nM.
In the case of `Cn1cc(-c2cc(F)c(NC(=O)N3[C@H]4CC[C@@H]3c3c[nH]c(=O)cc3C4)cc2Cl)ccc1=O` [Compound 30, (6S,9R)-N-(5-chloro-2-fluoro-4-(1-methyl-6-oxo-1,6-dihydropyridin-3-yl)phenyl)-3-oxo-3,5,6,7,8,9-hexahydro-2H-6,9-epiminocyclohepta[c]pyridine-10-carboxamide] it was 500 to 5000 nM.
For `CN(C(=O)C(F)(F)F)c1ccc(-c2cc(F)c(NC(=O)N3[C@H]4CC[C@@H]3c3c[nH]c(=O)cc3C4)cc2Cl)cn1` [Compound 31, (6S,9R)-N-(5-chloro-2-fluoro-4-(6-(2,2,2-trifluoro-N-methylacetamido)pyridin-3-yl)phenyl)-3-oxo-3,5,6,7,8,9-hexahydro-2H-6,9-epiminocyclohepta[c]pyridine-10-carboxamide], the IC50 fell in the range of 500 to 5000 nM.
